# Test results from PubChem BioAssay AID1845201 (Molecular Pharmacology Branch, DTP, NCI, 2023).
# Test system: COR L88 complex tumor spheroid viability
# Experiment: Anticancer human tumor COR L88 cell line growth inhibition;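 further: compound exposure lasted 7 days before viability readout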;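 on viability, T/C: percent of DMSO vehicle-treated spheroids = 100%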
# Conditions: for IC50: curve of first compound; for viability, T/C: stronger effect = lower value
# Text: Multicellular complex tumor spheroid response to DNA repair inhibitors in combination with DNA-damaging drugs
# This study explores the anticancer activities of DNA-damaging drugs and inhibitors of DNA damage repair, both as single agents and in combinations. Complex tumor spheroids comprised of malignant cells, endothelial cells and mesenchymal stem cells served as an in vitro model for human solid tumors. This model system incorporates physiologically relevant features and patient-derived or established malignant cell lines with clinically relevant genetic alterations from many tumor types. Twenty-six patient-derived or established malignant cell lines were evaluated representing sarcoma, melanoma, small cell lung cancer (SCLC), non-small cell lung cancer (NSCLC), as well as bladder, ovarian and pancreatic cancers. The concentration ranges selected for each drug and investigational agent were based upon clinically achievable concentrations if the clinical Cmax of the agent was known.
# Compounds. The drugs and compounds olaparib (NSC753686), talazoparib (NSC767125), berzosertib (NSC777718), elimusertib (NSC800525), nedisertib (NSC802822), VX-984 (NSC792969), AZD-1390 (NSC803789), temozolomide (NSC362856), topotecan (NSC609699), trabectedin (NSC813783), staurosporine (NSC755774), and gemcitabine (NSC613327) were obtained from the National Cancer Institute (NCI) Developmental Therapeutics Program Chemical Repository. The FDA-approved anticancer drug set is available from the Developmental Therapeutics Program at https://dtp.cancer.gov/organization/dscb/obtaining/available_plates.htm. […] The stock solutions were prepared in dimethyl sulfoxide (DMSO, Sigma-Aldrich, St. Louis, MO, cat. D2650) at 400-fold the tested concentration and stored at -70 degrees C. Prior to their use, the stock solutions were diluted in fresh medium and the final DMSO concentration in the assay was 0.25% (v/v). All drugs and investigational agents were tested over a range starting from a high concentration at or near the clinical Cmax and decreasing in half-log increments. If the clinical Cmax for an agent had not been determined, the highest concentration tested was 10 microM.
# Cell Lines. The patient-derived cancer cell (PDC) lines: 156681-154-R-J1-PDC, 283228-195-R-J1-PDC, 287954-098-R-J1-PDC, 292921-168-R-J2-PDC, 349418-098-R-PDC, 425362-245-T-J1-PDC, 556581-035-R-J1-PDC, and BL0293-F563-PDC were received from the NCI Patient-Derived Models Repository (PDMR, https://pdmr.cancer.gov). The established cell lines HS-SY-2 (RRID:CVCL_8719), MPNST, and SYO-1 (RRID:CVCL_7146) were obtained from the Sloan Kettering Institute. The alveolar soft parts sarcoma cell line ASPS-1 (RRID:CVCL_S738) was established at the NCI and grown from internal seed stocks. The following established cell lines were purchased from the American Type Culture Collection (ATCC, Manassas, VA): G-401 (ATCC, cat. CRL-1441, RRID:CVCL_0270), SW982 (ATCC, cat. HTB-93, RRID:CVCL_1734), VA-ES-BJ (ATCC, cat. CRL-2138, RRID:CVCL_1785), NCI-H719 (ATCC, cat. CRL-5837, RRID:CVCL_1582), NCI-H196 (ATCC, cat. CRL-5823, RRID:CVCL_1509), NCI-H841 (ATCC, cat. CRL-5845, RRID:CVCL_1595), NCI-H1618 (ATCC, cat. CRL-5879, RRID:CVCL_1480), NCI-H1876 (ATCC, cat. CRL-5902, RRID:CVCL_1503), DMS 114 (ATCC, cat. CRL-2066; RRID:CVCL_1174), NCI-H211 (ATCC, cat. CRL-5824; RRID:CVCL_1529), and SW 1271 (ATCC, cat. CRL-2177, RRID:CVCL_1716). The small cell lung cancer cell line COR-L88 was purchased from Sigma-Aldrich (cat. 92031917-1VL, RRID:CVCL_1141). The non-small cell lung cancer cell lines NCI-H226 (RRID:CVCL_1544) and NCI-H322M (RRID:CVCL_1557) were established at the NCI and grown from internal seed stocks. Pooled donor human umbilical vein endothelial cells (HUVEC, Lonza, cat. CC-2519) and human mesenchymal stem cells (hMSC, Lonza, cat. PT-2501) were purchased from Lonza (Walkersville, MD).
# Cell Culture. All cells were maintained in an incubator at 37 degrees C and 5% CO2 with 95% humidity. […]
# [1] = second compound 0.003 µM, first compound 0.00949 µM
# [2] = second compound 0.003 µM, first compound 0.03 µM
# [3] = second compound 0.003 µM, first compound 0.0949 µM
# [4] = second compound 0.003 µM, first compound 0.3 µM
# [5] = second compound 0.003 µM, first compound 0.949 µM
# [6] = second compound 0.003 µM, first compound 3 µM
# [7] = second compound 0.00949 µM, first compound 0.00949 µM
# [8] = second compound 0.00949 µM, first compound 0.03 µM
# [9] = second compound 0.00949 µM, first compound 0.0949 µM
# [10] = second compound 0.00949 µM, first compound 0.3 µM
# [11] = second compound 0.00949 µM, first compound 0.949 µM
# [12] = second compound 0.00949 µM, first compound 3 µM
# [13] = second compound 0.03 µM, first compound 0.00949 µM
# [14] = second compound 0.03 µM, first compound 0.03 µM
# [15] = second compound 0.03 µM, first compound 0.0949 µM
# [16] = second compound 0.03 µM, first compound 0.3 µM
# [17] = second compound 0.03 µM, first compound 0.949 µM
# [18] = second compound 0.03 µM, first compound 3 µM
# [19] = second compound 0.0949 µM, first compound 0.00949 µM
# [20] = second compound 0.0949 µM, first compound 0.03 µM
# [21] = second compound 0.0949 µM, first compound 0.0949 µM
# [22] = second compound 0.0949 µM, first compound 0.3 µM
# [23] = second compound 0.0949 µM, first compound 0.949 µM
# [24] = second compound 0.0949 µM, first compound 3 µM
# [25] = second compound 0.3 µM, first compound 0.00949 µM
# [26] = second compound 0.3 µM, first compound 0.03 µM
# [27] = second compound 0.3 µM, first compound 0.0949 µM
# [28] = second compound 0.3 µM, first compound 0.3 µM
# [29] = second compound 0.3 µM, first compound 0.949 µM
# [30] = second compound 0.3 µM, first compound 3 µM
SMILES,IC50 (second compound 0.003 µM) [nM],IC50 (second compound 0.00949 µM) [nM],IC50 (second compound 0.03 µM) [nM],IC50 (second compound 0.0949 µM) [nM],IC50 (second compound 0.3 µM) [nM],"viability, T/C [3] [%]","viability, T/C [4] [%]","viability, T/C [5] [%]","viability, T/C [6] [%]","viability, T/C [9] [%]","viability, T/C [10] [%]","viability, T/C [11] [%]","viability, T/C [12] [%]","viability, T/C [15] [%]","viability, T/C [16] [%]","viability, T/C [17] [%]","viability, T/C [18] [%]","viability, T/C [21] [%]","viability, T/C [22] [%]","viability, T/C [23] [%]",also measured
CNCc1ccc(-c2cc(-c3nc(-c4ccc(S(=O)(=O)C(C)C)cc4)cnc3N)on2)cc1 + CC[C@@]1(O)C(=O)OCc2c1cc1n(c2=O)Cc2cc3c(CN(C)C)c(O)ccc3nc2-1,497,393,149,22.6,< 9.49,105,64.2,30.1,9.59,88.2,53.7,30,9.92,62.6,32.5,17.3,9.44,24.9,16.2,11.7,"viability, T/C [1]: 94.4%; viability, T/C [2]: 102%; viability, T/C [7]: 103%; viability, T/C [8]: 99.7%; viability, T/C [13]: 60.8%; viability, T/C [14]: 63.6%; viability, T/C [19]: 55.3%; viability, T/C [20]: 49.5%; viability, T/C [24]: 7.2%; viability, T/C [25]: 43%; viability, T/C [26]: 29.2%; viability, T/C [27]: 14.9%; viability, T/C [28]: 9.3%; viability, T/C [29]: 7.79%; viability, T/C [30]: 5.02%"
Cn1ncnc1[C@H]1c2n[nH]c(=O)c3cc(F)cc(c23)N[C@@H]1c1ccc(F)cc1 + CC[C@@]1(O)C(=O)OCc2c1cc1n(c2=O)Cc2cc3c(CN(C)C)c(O)ccc3nc2-1,90.9,< 9.49,< 9.49,< 9.49,< 9.49,47.4,42.4,41.1,38.3,44.1,43.1,40.2,40.6,43.2,41.5,38.1,36.5,37.3,34.9,31.6,"viability, T/C [1]: 65.9%; viability, T/C [2]: 61.9%; viability, T/C [7]: 49.7%; viability, T/C [8]: 44%; viability, T/C [13]: 48.2%; viability, T/C [14]: 49.5%; viability, T/C [19]: 41.2%; viability, T/C [20]: 38.4%; viability, T/C [24]: 24.5%; viability, T/C [25]: 36%; viability, T/C [26]: 32.6%; viability, T/C [27]: 32.4%; viability, T/C [28]: 26.9%; viability, T/C [29]: 24.6%; viability, T/C [30]: 17.4%"
O=C(c1cc(Cc2n[nH]c(=O)c3ccccc23)ccc1F)N1CCN(C(=O)C2CC2)CC1 + CC[C@@]1(O)C(=O)OCc2c1cc1n(c2=O)Cc2cc3c(CN(C)C)c(O)ccc3nc2-1,9730,9850,282,< 94.9,< 94.9,89,85.6,85.3,66,62.3,56.2,57.3,57.5,51.3,50.1,48.3,48,45.7,44,44.3,"viability, T/C (second compound 0.003 µM, first compound 9.49 µM): 51.3%; viability, T/C (second compound 0.003 µM, first compound 30 µM): 45.6%; viability, T/C (second compound 0.00949 µM, first compound 9.49 µM): 47.3%; viability, T/C (second compound 0.00949 µM, first compound 30 µM): 45.8%; viability, T/C (second compound 0.03 µM, first compound 9.49 µM): 45.9%; viability, T/C (second compound 0.03 µM, first compound 30 µM): 45.8%; viability, T/C [24]: 41.9%; viability, T/C (second compound 0.0949 µM, first compound 9.49 µM): 40.3%; viability, T/C (second compound 0.0949 µM, first compound 30 µM): 33%; viability, T/C [27]: 41.4%; viability, T/C [28]: 41%; viability, T/C [29]: 39%; viability, T/C [30]: 32.6%; viability, T/C (second compound 0.3 µM, first compound 9.49 µM): 24.4%; viability, T/C (second compound 0.3 µM, first compound 30 µM): 18.5%"
